Assay: Transdermal penetration enhancement experiments in vitro (Franz diffusion transdermal device, tape peeling, microplate reader)
Assay type: in vitro ADME, pig
Settings: transdermal for 16 h
Experimental: Among them, delivery system groups of the second group and the third group are saturated 30% ethanol solutions of the Coumarin 6, and delivery volumes are […].
The aforementioned layers are divided into groups, soaked in 4 mL of a mixture of the phosphate buffer solution and methanol (a volume ratio is 1:1) to respectively extract the Coumarin 6 in a 1st layer of stratum corneum (SC1), 2nd-5th layers of stratum corneum (SC2), 6th-10th layers of stratum corneum (SC3), the epidermal layer (Epi), and the dermal layer (Der) at 200 r/min (revolutions per minutes (rpm)) at room temperature (e.g., 20-30° C.).

CCN(CC)c1ccc2cc(-c3nc4ccccc4s3)c(=O)oc2c1 [Control, Coumarin 6]
Content of the Coumarin 6 in SC1 (1st layer of stratum corneum): 0.005 ± 0.001 μg/1.77 cm^2 | Content of the Coumarin 6 in SC2 (2nd-5th layers of stratum corneum): 0.009 ± 0.002 μg/1.77 cm^2 | Content of the Coumarin 6 in SC3 (6th-10th layers of stratum corneum): 0.019 ± 0.003 μg/1.77 cm^2 | Content of the Coumarin 6, Total (all skin layers and receptor compartment): 0.199 ± 0.047 μg/1.77 cm^2 | Content of the Coumarin 6 in Der (dermal layer): 0.015 ± 0.011 μg/1.77 cm^2 | Content of the Coumarin 6 in Epi (epidermal layer): 0.021 ± 0.007 μg/1.77 cm^2 | Content of the Coumarin 6 in Rec (receptor compartment): 0.130 ± 0.043 μg/1.77 cm^2

Source: patent publication US12440439B2, “Mesoporous sponge spicule and methods thereof” (Xiamen University, priority 2019, dated 2025)
